Key:
[1] = system: HT29-GFP cells; assay: Liver metastasis establishment by cells transfected with siRNA in vitro; format: in vivo, mice; conditions: three weeks
Procedure: (§1) In Vivo Experiments. For in vivo studies, 4- to 6-week-old male nude^nu/nu mice were obtained from Harlan Sprague Dawley (Indianapolis, Ind.) and housed in clean, pathogen-free rooms in an environment with controlled temperature (22° C.), humidity, and a 12 hours light/dark cycle. The mice were fed standard chow (Formula Chow 5008; Purina Mills, St. Louis, Mo.) and tap water ad libitum and allowed to acclimate for 1 week. All studies were approved by the Institutional Animal Care and Use Committee of UTMB. Tumor cells were injected intrasplenically by methods previously described (Bruns et al., Neoplasia, 1:50-62 (1999)). Briefly, mice were anesthetized with halothane, a small left abdominal flank incision was created, and the spleen was exteriorized. Transfectants were harvested using only trypsin and resuspended as a single-cell suspension in Hanks Balanced Salt Solution, free of Mg^2+ and Ca^2+. Tumor cells (5×10^6 cells/400 μL) were injected into the spleen with a 27-gauge needle. The spleen was returned to the abdomen, and the wound was closed in one layer with wound clips. The mice were observed over the indicated time period using the Illumatool TLS (Lightools Research, Encinitas, Calif.). Animals were randomized into 3 experimental groups (5 animals per group) to receive p85α, p110α, or NTC siSTABLE siRNA (20 μg/mice, qod) by hydrodynamic tail vein injection (Watanabe et al., Gastroenterology, 128:1391-1404 (2005)) 24 hours after operation; mice were killed 35 days later. Experiments were performed in duplicate.
(§2) Methods of cells transfection and liver metastasis establishment are described in Example 1.
(§3) Akt2 is essential for colorectal cancer metastasis establishment. To determine whether Akt2 plays a causal role in colorectal cancer metastasis, we tested whether inhibition of Akt2 expression in the highly metastatic colorectal cancer cells would affect their metastatic ability. HT29^GFP or KM20^GFP cells were transfected with NTC (purchased from Dharmacon Inc.) or Akt2 siRNA (GUACUUCGAUGAUGAAUUU, SEQ ID NO:20) in vitro and inoculated intrasplenically (5×10^6) 60 hours later. To avoid intrasplenic tumor growth, the spleen was removed after 24 h. Animals were monitored individually for metastatic tumor growth using the Illumatool TLS. Three weeks after implantation the mice were sacrificed and the liver was examined for metastatic lesions by inspection of GFP fluorescence. […] In addition, the sizes of individual metastatic nodules present in the liver of both groups of mice were very similar. […] We also suspect that incomplete suppression of Akt2 by siRNA in a small subset of cells account for the residual ability of such cells to form liver metastasis.

[2] = system: KM20-GFP cells; assay: as above; format: in vivo, mice; conditions: three weeks
Procedure: as §1, §2, §3

[3] = system: Akt2; assay: Western blot of Akt2 in the cells used for intrasplenic inoculation; format: cell-based, human; conditions: before (0 h) or after (2 h) surgical procedure
Procedure: Protein Preparation and Western Immunoblot. Western immunoblot analyses were performed as described previously (Wang et al., Clin Cancer Res. 8:1940-1947 (2002)). Cells were lysed with TNN buffer at 4° C. for 30 minutes. Lysates were clarified by centrifugation (10,000 g for 30 minutes at 4° C.) and protein concentrations determined using the method of Bradford (Bradford, Anal Biochem., 72:248-254 (1976)). Briefly, total protein (60 μg) was resolved on a 10% polyacrylamide gel and transferred to Immobilon-P […] membranes. Filters were incubated overnight at 4° C. in blotting solution (Tris-buffered saline containing 5% nonfat dried milk and 0.1% Tween 20), followed by a 1-hour incubation with primary antibodies. Filters were washed 3 times in a blocking solution and incubated with horseradish peroxidase-conjugated secondary antibodies for 1 hour. After 3 additional washes, the immune complexes were visualized by ECL detection.
Akt2 is essential for colorectal cancer metastasis establishment. […] Animals were monitored individually for metastatic tumor growth using the Illumatool TLS. Three weeks after implantation the mice were sacrificed and the liver was examined for metastatic lesions by inspection of GFP fluorescence. […]

[4] = 5×10^6 intrasplenically 60 hours later, compared with NTC siRNA

GUACUUCGAUGAUGAAUUU [Akt2 siRNA]
macroscopically visible metastases in the liver [1, 4]: formed very few metastases | number of micrometastatic lesions in the liver (histological analysis) [1]: drastically reduced | sizes of individual metastatic nodules in the liver, compared with NTC group [1]: very similar | macroscopically visible metastases in the liver [2, 4]: formed very few metastases | number of micrometastatic lesions in the liver (histological analysis) [2]: drastically reduced | sizes of individual metastatic nodules in the liver, compared with NTC group [2]: very similar | Akt2 expression ([3]; HT29-GFP cells used for intrasplenic inoculation): confirmed Akt2 downregulation | Akt2 expression ([3]; KM20-GFP cells used for intrasplenic inoculation): confirmed Akt2 downregulation

From US8198252B2, “SIRNA inhibition of PI3K P85, P110, and AKT2 and methods of use” (Board of Regents, The University of Texas System, priority 2006, dated 2012)
